Experiments:
Dtymk = test: QPCR analysis of Dtymk knockdown in Lkb1-wt 634 cells; settings: normalized to shGFP
[1] = test system: Lkb1-null t2, t4, and t5 cells; test: dTTP rescue of shDtymk growth phenotype; type: cell-based, mouse; settings: without additional dTTP, 3 days
Experimental: (B) Morphology of Lkb1-null t2, t4, and t5 cells transduced with shGFP or shDtymk-1 and then cultured with or without additional 150 μM dTTP in medium for 3 days.
Next it was determined whether adding dTTP to the media could rescue cell death after Dtymk knockdown. Three Lkb1-null cell lines were transduced with shGFP or shDtymk-1 and then selectively cultured in puromycin medium in the presence or absence of 150 μM dTTP for 3 days (Taricani et al., 2010). […] Expression of DTYMK in the shDtymk-1 cells was not determined because the remaining cells were too few for RNA and protein extraction (FIG. 4B).

[2] = test system: Lkb1-wt (634, 855, and 857) and Lkb1-null (t2, t4, and t5) cells; test: Proliferation assay of shRNA-transduced cells (CellTiter-Glo); type: cell-based, mouse; settings: in vitro, puromycin 3 μg/ml
Experimental: Viable cells were measured daily using Promega's CellTiter-Glo Assay. Two independent sets of transductions into the 6 cell lines were shown: the first set used shGFP, shDtymk-1, and shChek1-4 (upper panels), and the second set used shGFP, shDtymk-3, and shChek1-1 (lower panels).
Lentiviral production and target cell transduction were performed according to previously description (Moffat et al., 2006). Briefly, 293T cells were co-transfected with pLenti-vector, pCMV-dR8.74psPAX2, and pMD2.G using TransIT-LT1 transfection reagent (Mirus). Thirty-six h after transfection, the supernatant was harvested and spun at 3000 rpm/4° C. for 10 min, and then incubated with target cells in the presence of 8 μg/ml polybrene (Sigma) for 24 h. Two days after infection, the cells were collected for further analysis as indicated in the presence of 3 μg/ml Puromycin (Invitrogen).
Cells were plated into 96-well plates at 2000 cells per well in 100 μl, with addition of puromycin at 3 μg/ml for shRNA lentivirus infected cells, or with addition of variable doses of drug for drug treatment effects. Viable cells were measured daily or for a period of up to 3 days either by CellTiter-Glo Luminescent Cell Viability Assay (Promega) or by Cell Counting Kit-8 (CCK-8) (Dojindo) according to the manufacturer's instructions. All proliferation assays were performed in triplicate wells.
Depletion of DTYMK and CHEK1 was confirmed by Western blot (FIG. 11B).

Lkb1-wt cells [3] = test: Array-based viral infection and cell proliferation assay (validation), Lkb1-wt; design: species or system mouse; settings: 5 days post infection, alamarBlue
Experimental: (§1) (C) Validation study. Relative viability of Lkb1-wt and Lkb1-null cells infected with 340 individual hairpins for 5 days. Genes of interest are highlighted by the colors indicated.
(§2) For array-based viral infection and assessment of proliferation, 2.5 μl virus was mixed with 250 cells in 100 μl medium containing 8 μg/ml polybrene per well in 96-well plates. The plates were spun at 2250 rpm/37° C. for 30 min. Immediately after spinning, supernatants were gently aspirated off and 100 μl fresh medium was added to each well of the 96-well plates. After 2 days incubation, medium was gently aspirated off and 100 fresh medium containing 3 μg/ml puromycin was added to each well of the 96-well plates. The plates were back to culture for additional 3 days and then the viable cells were monitored by alamarBlue (Invitrogen) assay according to manufacturer's instructions.
(§3) To identify Lkb1-null-selective essential genes, a synthetic lethal screen was performed using a pooled 40K murine shRNA lentiviral library for each of the Lkb1-wt and Lkb1-null cell lines described above. Relative abundance of shRNAs in each cell line sample was determined by deep-sequencing analysis, and for every shRNA, a log 2 Fold Change (log 2FC) value was calculated from the difference in relative abundance at a late time point after infection versus the initial shRNA-infected sample. An unsupervised hierarchical clustering analysis of the ranked hairpins from the triplicate pooled shRNA library screens of Lkb1-wt and Lkb1-null mouse cancer cells is shown in FIG. 1A. […] The ranked hairpins were collapsed by using two methods, a RIGER analysis (KS t-test based statistics) and a weighted second best analysis to rank genes that selectively impaired proliferation/viability in Lkb1-null cells. A union of 344 genes, identified by the top 100 individual hairpins for 88 genes (Table 1) and the top 200 genes from both the KS (Table 2) and weighted second best (Table 3), was nominated as the initial prioritized list (FIG. 1B). 340 shRNAs, targeting 70 candidate genes from this prioritized list, were chosen for validation (Table 4). The 70 genes consisted of the top 10 candidates from the KS analysis, as well as 60 others involved in a range of biological processes in an attempt to represent all biological categories in the validation process. Validation was performed in an array format with an assay of relatively short duration (5 days post infection) compared to the primary pooled screen (28 days), which should be a more stringent selection, as it required the anti-proliferative effects to manifest in a short time period. […] Dtymk, Check1, and Pdhb are the top 3 candidate genes, each with 3 hairpins that scored in the validation assay (FIG. 1C).

Lkb1-wt cells [4] = test: IdU pulse-labeling after Dtymk knockdown, Lkb1-wt; type: cell-based, mouse; settings: for proportion of cells labeled with IdU: mean
Experimental: (E) Lkb1-wt and Lkb1-null cells in 6-well plates were transduced with shDtymk-1 or shGFP. Two sets of the cells were plated into multiple chamber slides: one was 2 days and the other was 3 days post transduction. After overnight culturing, the cells were labeled with 100 μM IdU for 20 min then fixed for indirect immunofluorescence staining with anti-BrdU. The data represent mean±SD for 200˜300 cells. Representative merged images of BrdU (red) and DAPI (blue) in the indicated cells are shown (F).
The lower expression of DTYMK in Lkb1-null cells causes the cells to be in jeopardy of DNA damage. To investigate how further knockdown of Dtymk and the consequent decrease in the dTTP pool could affect DNA metabolism, IdU pulse-labeling in Lkb1-wt and Lkb1-null cells was performed 2.5 and 3.5 days post-transduction with shDtymk-1. […] The representative images of Lkb1-wt and Lkb1-null cells co-stained for IdU and DAPI are shown (FIG. 5F). In addition, an overall lower proportion of labeled Lkb1-null than Lkb1-wt cells (43.1% vs. 57.7%) was observed, which may be related to the lower dNTP levels in Lkb1-null cells.

[5] = test system: Lkb1-null versus Lkb1-wt cell lines; test: Large-scale pooled shRNA library screening (murine 40K pool); type: cell-based, mouse
Lkb1-null cells = test: Array-based viral infection and cell proliferation assay (validation), Lkb1-null; design: species or system mouse
Experimental: as §1, §2, §3

shDtymk-1: shRNA hairpin CAAGCTTCTGAATTCCTACTT targeting Mouse Dtymk
mRNA remaining (by qPCR) (Dtymk): 20.00%
growth of shDtymk-transduced Lkb1-null cells [1]: grew poorly
cell growth compared to shGFP control, Lkb1-null versus Lkb1-wt [2]: inhibition was stronger in Lkb1-null cells
WT ave-GR (Lkb1-wt cells [3]): 0.53
proportion of cells labeled with IdU (Lkb1-wt cells [4]; day 2.5 post infection): 46.3%
proportion of cells labeled with IdU (Lkb1-wt cells [4]; day 3.5 post infection): 22.3%
drop of proportion of IdU-labeled cells (Lkb1-wt cells [4]; in 3.5 days): 61.2%
Hairpin-rank in pooled shRNA screen ([5]; Table 6): 27050
NES ([5]; gene-level normalized enrichment score over all hairpins of the gene): 1.540
Gene rank ([5]; gene-level rank by NES): 91
# HP 500 ([5]; number of the gene's hairpins ranked within top 500): 1
# HP 1000 ([5]; number of the gene's hairpins ranked within top 1000): 1
# HP 5000 ([5]; number of the gene's hairpins ranked within top 5000): 1
# HP 10000 ([5]; number of the gene's hairpins ranked within top 10000): 2
Growth of Lkb1-wt/Lkb1-null in array-based validation (Lkb1-null cells; Table 6): 4.16
Null ave-GR (Lkb1-null cells; validation, 5 days post infection, alamarBlue): 0.13
